# Data reported in patent US20120121692A1, “COMPOUNDS AND COMPOSITIONS COMPRISING CDK INHIBITORS AND METHODS FOR TREATING CANCER” (SHANDONG UNIVERSITY, priority 2009, published 2012).
# Legend:
# [1] = tested on: HCT116 cells; test: MTT cytotoxicity screening, human colon cancer cell line HCT116; format: cell-based; conditions: Homo sapiens, HCT-116, 48 hrs incubation, absorbance 490 nm, primary screening, read-out: IC50
# Procedure, shortened: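 HCT116 cells seeded at 2.5×10^4 cells/ml, treated 24 h later for 48 h with compounds in medium (final DMSO 0.1%-0.001% v/v); dose series 100 μM–1 μM or 10 μM–62.5 nM, primary screen at 100 and 10 μM. Viability read by MTT (4 h, 37° C), formazan dissolved in DMSO, absorbance 490 nm.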
# [2] = tested on: Human Colon Carcinoma HCT116 xenograft; test: In vivo human colon carcinoma HCT116 xenograft test; parameters: species or system BALB/cASlac-nu mice
# Method: (E)-3-(2-Chlorophenyl)-1-(2-hydroxy-4,6-dimethoxy-3-(1,2,3,6-tetrahydropyridine-4-yl)phenyl)-2-propylene-1-one hydrochloride, B2, was dissolved in a pyrogen-free, sterile PBS solution containing 1% dimethyl sulfoxide (DMSO). For daily injections, a freshly prepared solution was stored at 4° C. Before injection the B2 solution was warmed up to 37° C. and vigorously agitated in a vortex. B2 was administered through intraperitoneal injection (i.p.), 2.5, or 7.5 mg/kg/d, 20 days.
# The positive control animals received 5 mg/kg/d doxorubicin intraperitoneally (i.p.), and the blank group mice received PBS solution containing 1% DMSO i.p., 5 mL/kg/d.
# Female BALB/cASlac-nu mice (SLAC LABORATORY ANIMAL, Shanghai), ages 4 to 5 weeks, were used in this procedure. Animals were maintained according to the guidelines established by the National Institutes of Health.
# The Human Colon Carcinoma HCT116 were grown in RPMI-1640 medium with 10% fetal calf serum and L-glutamine, and the cells were maintained using standard tissue culture conditions.
# For the production of s.c. tumors, 1×10^7 cells in 0.1 mL of medium without serum were inoculated in the right flank of mice. After the tumors were implanted and reached a palpable size, the mice were randomized into control and treatment groups (n=6)
# Subcutaneous tumors were measured with caliper, and the weight of the animals recorded at least three times a week. Tumor volume was estimated from caliper measurements of two perpendicular dimensions of the tumor in millimeters using the formula:
# Tumor Volume(mm^3)=length(mm)×width(mm)^2/2
# Tumor Inhibition Ratio (%)=(the blank group tumor weight average−the treatment group tumor weight average)/the blank group tumor weight average×100
# Relative Tumor Volume (RTV)=Vt/V0. V0: the tumor volume measured at the time of randomization; Vt: the tumor volume measured each time during the administration.
# Relative Increment Ratio T/C (%)=the treatment group(T) RTV/the blank control group(C) RTV×100. T/C(%)>40: inefficacy; T/C(%)≦40, and P<0.05: utility.
structure (smiles),measurement,setting,value
"COc1cc(OC)c(C2=CCNCC2)c(O)c1C(=O)/C=C/c1ccccc1Cl [Compound B2, (E)-3-(2-chlorophenyl)-1-(2-hydroxy-4,6-dimethoxy-3-(1,2,3,6-tetrahydropyridine-4-yl)phenyl)-2-propylene-1-one]",IC50,[1],0.1 µM
same,% inhibit. (tumor inhibition ratio by tumor weight),[2]; 2.5 mg/kg/d × 20 d i.p.,88.2%
same,RTV (relative tumor volume Vt/V0),[2]; 2.5 mg/kg/d × 20 d i.p.,2.86 ± 0.202
same,TIV (%),[2]; 2.5 mg/kg/d × 20 d i.p.,19.0%
same,Tumor wgt.,[2]; 2.5 mg/kg/d × 20 d i.p.,0.041 ± 0.0093 g
same,Tumor vol. (mm^3) Final,[2]; 2.5 mg/kg/d × 20 d i.p.,121 ± 78.2 mm^3
same,Tumor vol. (mm^3) Initial,[2]; 2.5 mg/kg/d × 20 d i.p.,53 ± 28.0 mm^3
same,% inhibit. (tumor inhibition ratio by tumor weight),[2]; 7.5 mg/kg/d × 20 d i.p.,−25.6%
same,RTV (relative tumor volume Vt/V0),[2]; 7.5 mg/kg/d × 20 d i.p.,12.57 ± 0.667
same,TIV (%),[2]; 7.5 mg/kg/d × 20 d i.p.,83.3%
same,Tumor wgt.,[2]; 7.5 mg/kg/d × 20 d i.p.,0.437 ± 0.3105 g
same,Tumor vol. (mm^3) Final,[2]; 7.5 mg/kg/d × 20 d i.p.,777 ± 459.5 mm^3
same,Tumor vol. (mm^3) Initial,[2]; 7.5 mg/kg/d × 20 d i.p.,58 ± 39.7 mm^3
same,optimal T/C (relative increment ratio),"[2]; HCT116 xenografts, dosage of 2.5 mg/kg/day",19.0%
same,toxicity during the administration,"[2]; two B2 treatment groups, 2.5 or 7.5 mg/kg/d i.p., 20 days",no significant toxicity was found
"COc1ccc(-c2cc(=O)c3c(OC)cc(OC)c(C4=CCN(C)CC4)c3o2)c(OC)c1OC [Compound F7, 5,7-dimethoxy-8-(1-methyl-1,2,3,6-tetrahydropyridin-4-yl)-2-(2,3,4-trimethoxy-phenyl)-4H-chromen-4-one]",IC50,[1],9.17 µM
same,melting point,,209 to 210 °C
"COc1cc(/C=C/C(=O)c2c(OC)cc(OC)c(C3=CCN(C)CC3)c2O)cc(OC)c1OC [Compound A17, (E)-1-(2-hydroxy-4,6-dimethoxy-3-(1-methyl-1,2,3,6-tetrahydropyridine-4-yl)phenyl)-3-(3,4,5-trimethoxyphenyl)-2-propylene-1-one]",IC50,[1],18.4 µM
same,melting point,,156 to 158 °C
"Cc1cccc(-c2cc(=O)c3c(O)cc(O)c(C4=CCN(C)CC4)c3o2)c1 [Compound G2, 5,7-hydroxy-8-(1-methyl-1,2,3,6-tetrahydropyridin-4-yl)-2-(3-methylphenyl)-4H-chromen-4-one]",IC50,[1],3.65 µM
same,melting point,,179 to 180 °C
"COc1ccc(/C=C/C(=O)c2c(OC)cc(OC)c(C3=CCNCC3)c2O)cc1 [Compound B10, (E)-1-(2-hydroxy-4,6-dimethoxy-3-(1,2,3,6-tetrahydropyridine-4-yl)phenyl)-3-(4-methoxyphenyl)-2-propylene-1-one]",IC50,[1],11.4 µM
same,melting point,,90 to 91 °C
